# Results reported in patent US8338432B2, “Derivatives of 6,7-dihydro-3H-oxazolo[3,4-a]pyrazine-5,9-dione as PDE-5 inhibitors” (Biolab Sanus Farmaceutica Ltda., priority 2010, dated 2012).
# Read-outs that look alike come from different tables or passages of the source.
# Legend:
# human corpus cavernosum = test: Relaxation of noradrenaline-contracted human isolated corpus cavernosum (isometric tension recording); details: human corpus cavernosum contracted with noradrenaline, 0.0001-1 μM, n=3
# Procedure: (§1) Human corpus cavernosum and urether were obtained from discarded tissues from surgeries, which were placed in ice-cold Krebs solution for rapid transport to the laboratory.
# (§2) Cavernosal strips, pulmonary artery, and urether were mounted in 10 ml organ chambers containing Kreb's solution at 37° C., pH 7.4 continuously bubbled with a mixture of 95% O2 and 5% CO2. The tissues were stretched to a resting force of 5 mN and allowed to equilibrate for 60 min. Changes in isometric force were recorded using a PowerLab 4/30 data acquisition system (Chart software, version 7.0; ADInstruments, Colo. Springs, Colo.). Cumulative concentration-response curves to compound 2 (named BL 106 in FIGS. 1, 2 and 3) (0.001-10 μM) were obtained in cavernosal strips, pulmonary artery rings, and urether contracted with noradrenaline (NOR 10 μM) (Sigma, St. Louis, Mo.). Concentration response curves to compound 2 (denoted BL 106 in FIGS. 1, 2 and 3) were constructed for each sample. For pulmonary artery, concentration response curves to compound 2 were also constructed in the presence or absence of the soluble guanylate cyclase inhibitor 1H-[1,2,4]Oxadiazolo[4,3-a]quinoxalin-1-one (ODQ 10 μM) (Sigma, St. Louis, Mo.). Control rings (treated with 40 mM DMSO) were also ran in parallel with experimental strips and rings.
# Noradrenaline caused a sustained contraction in the human corpus cavernosum.
# human urether tissue = test: Relaxation of noradrenaline-contracted human isolated urether tissue (isometric tension recording); details: human urether contracted with noradrenaline, 0.0001-1 μM, n=3
# Procedure: as §1, §2
# Noradrenaline caused a sustained contraction in the human urether tissue.
# rabbit corpus cavernosum = test: Relaxation of noradrenaline-contracted rabbit isolated corpus cavernosum (isometric tension recording)
# Procedure: as §2, with “Male New Zealand White rabbits (2-2.5 kg) were used for penis and pulmonary artery tissues, which were excised and transferred to ice-cold Kreb's solution. Two strips and four rings were obtained from each corpus cavernosum (CC) and pulmonary artery, respectively. Cavernosal” for “Cavernosal”, “rings. Noradrenaline (3 or 10 μM) caused a sustained contraction in rabbit corpus cavernosum (13.8 mN).” for “rings.”
# rabbit pulmonary artery = test: Relaxation of noradrenaline-contracted rabbit isolated pulmonary artery rings (isometric tension recording)
# Procedure: as §2, with “Male New Zealand White rabbits (2-2.5 kg) were used for penis and pulmonary artery tissues, which were excised and transferred to ice-cold Kreb's solution. Two strips and four rings were obtained from each corpus cavernosum (CC) and pulmonary artery, respectively. Cavernosal” for “Cavernosal”, “rings. Noradrenaline (3 or 10 μM) caused a sustained contraction in the rabbit pulmonary artery (17.4 mN).” for “rings.”
# [1] = read-out: pEC50 of relaxation (converted)
EC50 (human corpus cavernosum; [1]) [µM],EC50 (human urether tissue; [1]) [µM],"EC50 (rabbit corpus cavernosum; Oryctolagus cuniculus, rabbit corpus cavernosum contracted with noradrenaline, n=3, read-out: EC50 of relaxation (bracketed after pEC50) (converted)) [µM]","EC50 (rabbit corpus cavernosum; Oryctolagus cuniculus, rabbit corpus cavernosum contracted with noradrenaline, n=3, read-out: pEC50 of relaxation (converted)) [µM]","EC50 (rabbit pulmonary artery; Oryctolagus cuniculus, rabbit pulmonary artery rings contracted with noradrenaline, 0.001-10 μM, n=3, read-out: pEC50 of relaxation (converted)) [µM]","EC50 (rabbit pulmonary artery; Oryctolagus cuniculus, rabbit pulmonary artery rings contracted with noradrenaline, n=3, read-out: EC50 of relaxation (bracketed after pEC50) (converted)) [µM]",Compound,Emax (human corpus cavernosum) [%],Emax (human urether tissue) [%],"Emax (rabbit corpus cavernosum; Oryctolagus cuniculus, rabbit corpus cavernosum contracted with noradrenaline, n=3) [%]","Emax (rabbit pulmonary artery; Oryctolagus cuniculus, rabbit pulmonary artery rings contracted with noradrenaline, 0.001-10 μM, n=3) [%]","sustained contraction (rabbit corpus cavernosum; rabbit corpus cavernosum, noradrenaline 3 or 10 μM) [mN]","sustained contraction (rabbit pulmonary artery; rabbit pulmonary artery, noradrenaline 3 or 10 μM) [mN]"
0.0224,0.513,1.2,1.2,0.589,0.588,"CN1CC(=O)N2C(=C(c3c[nH]c4ccccc34)OC2c2ccc3c(c2)OCO3)C1=O (racemic) [Compound 2, (R,S)-3-(1,3-benzodioxol-5-yl)-1-(1H-indol-3-yl)-7-methyl-6,7-dihydro[1,3]oxazolo[3,4-a]pyrazine-5,8-dione]",71,49,91,62,,
,,,,,,"NC[C@H](O)c1ccc(O)c(O)c1 [Noradrenaline, noradrenaline, reference compound]",,,,,13.8,17.4
